Experiments:
[1] = Osmolality measurements (Osmomat 030-D); type: physicochemical; conditions: samples of composition prepared as per Example 13
Description: The term “osmolality,” as used herein, means the number of moles of any water-soluble compound per kg of the carrier. In the present invention, the osmolality may be measured according to known methods, such as using a Vapor pressure Osmometer, a Colloid Osmometer, or a Freezing Point Depression Osmometer such as Osmomat® 030-D or Osmomat® 3000, in particular by a Freezing Point Depression Osmometer. In the present invention, pharmaceutically acceptable carrier has an osmolality of about 1 osmol/kg or more than about 1 osmol/kg of the pharmaceutically acceptable carrier.
The term “osmolality ratio,” as used herein, means the ratio of osmolality of the external phase to the osmolality of the internal phase. […]
Xylitol, microcrystalline cellulose-sodium carboxymethyl cellulose, xanthan gum, strawberry flavor, sucralose, citric acid, methyl paraben, propyl paraben and colloidal silicon dioxide, purified water were mixed as per Example 13. This suspension was then filtered and diluted with purified water, and the osmolality of the external phase was measured using Osmomat 030-D.
Various solutions having various concentrations of sodium chloride were prepared as per Examples (A)-(D). The osmolalities of these solutions were measured using Osmomat 030-D.
Sodium chloride was dissolved in purified water as per Examples A-D. The osmolality of these solutions were measured using Osmomat 030-D.

[2] = pH dependent degradation profile - solution state stability; type: physicochemical
Description: Guanfacine, particularly guanfacine hydrochloride, is found to degrade at high pH values. […] One of the major impurity of guanfacine is 2,6-dichlorophenyl acetic acid. [table]

[3] = cited from earlier work

- Osmolality [1]: 0.006 OSMOL/Kg
- % Assay ([2]; pH 1.2, 0 hours): 101.2%
- % Assay ([2]; pH 1.2, 1 hour): 101.2%
- % Assay ([2]; pH 1.2, 4 hours): 101.2%
- % Assay ([2]; pH 1.2, 8 hours): 101.1%
- % Assay ([2]; pH 1.2, 16 hours): 101.6%
- % Assay ([2]; pH 1.2, 24 hours): 101.4%
- % Assay ([2]; pH 2.2, 0 hours): 100.3%
- % Assay ([2]; pH 2.2, 1 hour): 100.5%
- % Assay ([2]; pH 2.2, 4 hours): 100.4%
- % Assay ([2]; pH 2.2, 8 hours): 100.4%
- % Assay ([2]; pH 2.2, 16 hours): 100.3%
- % Assay ([2]; pH 2.2, 24 hours): 100.2%
- % Assay ([2]; pH 4.5, 0 hours): 99.4%
- % Assay ([2]; pH 4.5, 1 hour): 99.0%
- % Assay ([2]; pH 4.5, 4 hours): 98.7%
- % Assay ([2]; pH 4.5, 8 hours): 98.9%
- % Assay ([2]; pH 4.5, 16 hours): 98.7%
- % Assay ([2]; pH 4.5, 24 hours): 98.5%
- % Assay ([2]; pH 6.8, 0 hours): 99.5%
- % Assay ([2]; pH 6.8, 1 hour): 99.0%
- % Assay ([2]; pH 6.8, 4 hours): 97.2%
- % Assay ([2]; pH 6.8, 8 hours): 93.7%
- % Assay ([2]; pH 6.8, 16 hours): 86.3%
- % Assay ([2]; pH 6.8, 24 hours): 79.9%
- % Assay ([2]; pH 7.5, 0 hours): 100.9%
- % Assay ([2]; pH 7.5, 1 hour): 99.9%
- % Assay ([2]; pH 7.5, 4 hours): 97.1%
- % Assay ([2]; pH 7.5, 8 hours): 92.2%
- % Assay ([2]; pH 7.5, 16 hours, listed as guanfacine, monohydrochloride): 84%
- % Assay ([2]; pH 7.5, 16 hours, monohydrochloride): 84.0%
- % Assay ([2]; pH 7.5, 24 hours): 77.5%
Compound: Cl.N=C(N)NC(=O)Cc1c(Cl)cccc1Cl [Guanfacine hydrochloride, N-amidino-2-(2,6-dichlorophenyl)-acetamide monohydrochloride]
- solubility in acetone ([3]; acetone): slightly soluble
- solubility in alcohol ([3]; alcohol): sparingly soluble
- solubility in water ([3]; water): approximately 1 mg/mL

Source: patent publication US10258583B2, “Extended release liquid compositions of guanfacine” (SUN PHARMACEUTICAL INDUSTRIES LIMITED, priority 2014, dated 2019)
